Reference: patent US20230135877A1, “COMPOSITIONS AND METHODS FOR TREATING AND PREVENTING LUNG DISEASE” (Arizona Board of Regents on Behalf of the University of …, priority 2020, published 2023)
Entries after “also recorded” stand apart in the source; their conditions may differ. Read-outs that look alike come from different tables or passages of the source. Where a SMILES comes first, the peptide text is derived from it. Bridges are numbered along the chain shown (N, C = ends). Roman numbers before positions name the chains, in order. Where no end group is shown, it is not given here. [ ]: non-standard residue; d: D form. Nle = CCCC[C@H](N)C(=O)O

Assays:
eosinophils = assay: Eosinophil cytotoxicity by real-time impedance tracing (xCELLigence RTCA); format: cell-based, IL-5 transgenic mice; conditions: for cytotoxic effect on eosinophils as measured by AUC: 3 μg/ml; for Average magnitude of largest AUC: AUC of normalized cell index, negative AUC = cell death; for average AUC (decrease in cell index): 30 μg/ml; for normalized cell index tracings over time (peptide activity): after 24 hours
From the text: IL-5 transgenic mice were euthanized and blood collected by cardiac puncture through the left ventricle. Red blood cells (RBCs) were lysed using a red blood cell lysis solution (Miltenyi Biotec, Auburn CA). Eosinophils were isolated by negative selection using biotin-conjugated antibodies (CD45R, Thy 1.2, F4/80) and magnetic beads, as previously described (see, Dy, A. B. C., et al., 2019 J Immunol 203: 1122-1130; Ledford, J. G., et al., 2012 PLoS One 7: e32436). Purity of each preparation was verified using standard morphometric analysis of cytocentrifuged slides stained with Easy III™ rapid differential staining kit (Azer Scientific, Morgantown Pa.) to be greater than 95%.
High throughput real-time monitoring of eosinophil cell death was assessed by measuring electrical impedance using the xCELLigence Real-Time Cell Analyzer (ACEA Biosciences, San Diego Calif.) as previously described (see, Dy, A. B. C., et al., 2019 J Immunol 203: 1122-1130; Flynn, A. N., et al., FASEB J 27: 1498-1510; Zeng, C., et al., Environ Res 164: 452-458). Using 96-well gold electrode coated plates (E-plates, ACEA Biosciences) incubated at 37° C. and 5% CO2, an initial background reading was obtained with media only. In a total volume of […] were seeded at 1×10^6 cells/well and allowed to settle for ˜5 hours. Test compounds were added at various concentrations (1, 3, 10 and 30 μg/ml) and changes in electrical impedance were measured over time. Impedance measurements were calculated and presented as normalized cell index (see, Flynn, A. N., et al., FASEB J 27: 1498-1510; Zeng, C., et al., Environ Res 164: 452-458), where a decrease in cell index corresponds to an increase in eosinophil cytotoxicity. Impedance tracings over time were derived from averages of 3-4 technical replicates. To quantify and compare cytotoxicity, the area under the curve (AUC) was calculated using cell index values. Half maximal effective concentration (EC50) values were generated using equivalent molar concentrations and their corresponding dose-response curves for each peptidomimetic.

mouse model of asthma = assay: HDM experimental allergen challenge, in vivo mouse model of asthma; parameters: species or system mice; conditions: pre-clinical mouse model of asthma; preliminary data
From the text: FIG. 1A-C. Evaluation of SP-A-derived 10-mer native peptide in an in vivo mouse model of asthma. A) Schematic of HDM experimental allergen challenge. B) Newtonian resistance
(Rn) during methacholine challenge of wild-type mice 6 days after terminal HDM challenge. C) Total eosinophil counts in BAL (left panel) and mucin production (right panel) by PAS scoring. Unpaired t-test, *p<0.05, **p<0.01.

[1] = Table 3 summary of lead peptidomimetics, eosinophils, RTCA, read-out: EC50

Molecule	Average magnitude of largest AUC (eosinophils; eosinophils, RTCA)	Concentration at which average AUC is largest (eosinophils; eosinophils, RTCA) [µM]	EC50 (eosinophils) [nM]	further results
CSCC[C@H](NC(=O)[C@H](CCC(=O)O)NC(=O)[C@@H](NC(=O)[C@H](CSSC[C@H](NC(=O)[C@H](CCC(N)=O)NC(=O)[C@H](CCC(=O)O)NC(=O)[C@H](CCCCN)NC(C)=O)C(=O)N[C@H](C(=O)N[C@@H](CCC(=O)O)C(=O)N[C@@H](CCSC)C(=O)N[C@@H](Cc1ccc(O)cc1)C(=O)N[C@H](C(=O)N[C@@H](CC(=O)O)C(N)=O)[C@@H](C)O)C(C)C)NC(=O)[C@H](CCC(N)=O)NC(=O)[C@H](CCC(=O)O)NC(=O)[C@H](CCCCN)NC(C)=O)C(C)C)C(=O)N[C@@H](Cc1ccc(O)cc1)C(=O)N[C@H](C(=O)N[C@@H](CC(=O)O)C(N)=O)[C@@H](C)O [Peptidomimetic 868, (Ac-KEQCVEMYTD-NH2)2] (I: Ac-KEQCVEMYTD-NH2 / II: Ac-KEQCVEMYTD-NH2; disulfide I:4-II:4)	−9.21	1.17		cytotoxic effect on eosinophils as measured by AUC (eosinophils): most robust cytotoxic effect; also recorded: most comparable response to full-length SP-A; EC50 (eosinophils; [1]): 10900 nM
CCCC[C@H](NC(=O)[C@H](CCC(=O)O)NC(=O)[C@@H](NC(=O)[C@H](CS)NC(=O)[C@H](CCC(N)=O)NC(=O)[C@H](CCC(=O)O)NC(=O)[C@H](CCCCN)NC(C)=O)C(C)C)C(=O)N[C@@H](Cc1ccc(O)cc1)C(=O)N[C@H](C(=O)N[C@@H](CC(=O)O)C(N)=O)[C@@H](C)O [Peptidomimetic 882, Ac-KEQCVE-Nle-YTD-NH2] (Ac-KEQCVE[Nle]YTD-NH2)			3000	
CCCC[C@H](NC(=O)[C@H](CCC(=O)O)NC(=O)[C@@H](NC(=O)[C@H](C)NC(=O)[C@H](CCC(N)=O)NC(=O)[C@H](CCC(=O)O)NC(=O)[C@H](CCCCN)NC(=O)CNC(=O)[C@H](Cc1c[nH]c2ccccc12)NC(C)=O)C(C)C)C(=O)N[C@@H](Cc1ccc(O)cc1)C(=O)N[C@H](C(=O)N[C@@H](CC(=O)O)C(N)=O)[C@@H](C)O [Peptidomimetic 891, Ac-WGKEQAVE-Nle-YTD-NH2] (Ac-WGKEQAVE[Nle]YTD-NH2)			1030	
CCCC[C@H](NC(=O)[C@H](CCC(=O)O)NC(=O)[C@@H](NC(=O)[C@H](CS)NC(=O)[C@H](CCC(N)=O)NC(=O)[C@H](CCC(=O)O)NC(=O)[C@H](CCCCN)NC(=O)CNC(=O)[C@H](Cc1c[nH]c2ccccc12)NC(C)=O)C(C)C)C(=O)N[C@@H](Cc1ccc(O)cc1)C(=O)N[C@H](C(=O)N[C@@H](CC(=O)O)C(N)=O)[C@@H](C)O [Peptidomimetic 892, Ac-WGKEQCVE-Nle-YTD-NH2] (Ac-WGKEQCVE[Nle]YTD-NH2)	−1.07	0.10	8	magnitude of the calculated AUCs compared with full-length SP-A, 10-mer, 20-mer and several peptidomimetics (eosinophils; eosinophils, RTCA): much smaller
CCCC[C@H](NC(=O)[C@H](CCC(=O)O)NC(=O)[C@@H](NC(=O)[C@H](CS)NC(=O)[C@H](CCC(N)=O)NC(=O)[C@H](CCC(=O)O)NC(=O)[C@H](CCCCN)NC(=O)CNC(=O)[C@H](CCCNC(=N)N)NC(C)=O)C(C)C)C(=O)N[C@@H](Cc1ccc(O)cc1)C(=O)N[C@H](C(=O)N[C@@H](CC(=O)O)C(N)=O)[C@@H](C)O [Peptidomimetic 893, Ac-RGKEQCVE-Nle-YTD-NH2] (Ac-RGKEQCVE[Nle]YTD-NH2)			38	
CCCC[C@H](NC(=O)[C@H](CCC(=O)O)NC(=O)[C@@H](NC(=O)[C@H](CS)NC(=O)[C@H](CCC(N)=O)NC(=O)[C@H](CCC(=O)O)NC(=O)[C@H](CCCCN)NC(=O)CNC(=O)[C@@H](Cc1c[nH]c2ccccc12)NC(C)=O)C(C)C)C(=O)N[C@@H](Cc1ccc(O)cc1)C(=O)N[C@H](C(=O)N[C@@H](CC(=O)O)C(N)=O)[C@@H](C)O [Peptidomimetic 894, Ac-wGKEQCVE-Nle-YTD-NH2] (Ac-[dW]GKEQCVE[Nle]YTD-NH2)	−1.63	0.01	12	magnitude of the calculated AUCs compared with full-length SP-A, 10-mer, 20-mer and several peptidomimetics (eosinophils; eosinophils, RTCA): much smaller
Ac-GDFRYSDGTPVNYTNWYRGE-NH2 [Peptidomimetic 889]			1790	
Ac-KEQAVEMYTD-NH2 [Peptidomimetic 884, Ac-KEQAVEMYTD-NH2]			10600	
Ac-KEQCVEMYTD (N-terminus assumed) [10-mer peptide, KEQCVEMYTD, reference compound]	−2.62	24.00	16000	average AUC (decrease in cell index) (eosinophils; eosinophils, RTCA): -2.62; EC50 (eosinophils; [1]): 16000 nM; normalized cell index tracings over time (peptide activity) (eosinophils; eosinophils, RTCA): decline in peptide activity after 24 hours; airway hyperresponsiveness (mouse model of asthma): reduce; airway mucus production (mouse model of asthma): reduce; eosinophilia (mouse model of asthma): reduce
Ac-KEQCVEMYTD-NH2 [Peptidomimetic 856, Ac-KEQCVEMYTD-NH2]			8210	
Ac-KEQCVEMYTD-OH [Peptidomimetic 870, Ac-KEQCVEMYTD-acid]			10800	
Ac-KEQSVEMYTD-NH2 [Peptidomimetic 883, Ac-KEQSVEMYTD-NH2]			9410	
Ac-SDGTPVNYTNWYRGEPAGRGKEQ-NH2 [Peptidomimetic 888]			35	
Ac-WGKEQCVEMYTD-NH2 [Peptidomimetic 867, Ac-WGKEQCVEMYTD-NH2]	−9.06	1.96		cytotoxic effect on eosinophils as measured by AUC (eosinophils): most robust cytotoxic effect; also recorded: most comparable response to full-length SP-A; EC50 (eosinophils; [1]): 950 nM
Full-length SP-A: Full-length surfactant protein A; served as the positive control for eosinophil cell death	−13.89	0.86		average AUC (decrease in cell index) (eosinophils; eosinophils, RTCA): −13.89; eosinophil cell death (eosinophils; eosinophils, RTCA): induced eosinophil cell death in a dose-dependent manner; EC50 (eosinophils; eosinophils, RTCA, concentration range 1, 3, 10 and 30 μg/ml, read-out: EC50 (half maximal effective concentration, based on AUC at each dose)): 158 nM
H-KEQCVEMYTD-OH [Peptidomimetic 871, H-KEQCVEMYTD-acid]			2520	
PAGRGKEQCVEMYTDGQWND [20-mer peptide, reference compound]	−3.50	13.10	14700	average AUC (decrease in cell index) (eosinophils; eosinophils, RTCA): -3.50; EC50 (eosinophils; [1]): 14700 nM; normalized cell index tracings over time (peptide activity) (eosinophils; eosinophils, RTCA): decline in peptide activity after 24 hours; airway hyperresponsiveness (mouse model of asthma): reduce; airway mucus production (mouse model of asthma): reduce; eosinophilia (mouse model of asthma): reduce
